Converted amounts (≈) assume the structure as drawn. The source made the active and inactive calls. The rule behind the calls is not given here.
Columns and labels:
[1] = tested on: Mycobacterium tuberculosis; test: Antitubercular activity against replicating Mycobacterium tuberculosis H37Rv assessed as growth inhibition measured after 7 days incubation by microplate alamar blue assay; type: functional; conditions: 168 h
[2] = tested on: Mycobacterium tuberculosis; test: Antimycobacterial activity against dormant stage of Mycobacterium tuberculosis H37Ra ATCC 25177 assessed as growth inhibition at 10 uM incubated for 12 days by XRMA method relative to control; type: functional; conditions: H37Ra ATCC 25177, 288 h
Escherichia coli = test: Antibacterial activity against Escherichia coli ATCC 25922 assessed as growth inhibition incubated for 18 to 24 hrs by broth microdilution based antibiotic susceptibility testing method; type: functional
CHO-K1 [3] = test: Cytotoxicity against CHOK1 cells assessed as reduction in cell viability incubated for 24 hrs by MTT assay; type: cell-based; conditions: Cricetulus griseus, CHO-K1, 24 h
MCF7 = test: Cytotoxicity against human MCF7 cells assessed as cell viability at 10 uM incubated for 24 hrs by MTT assay; type: cell-based; conditions: mcf7, 24 h
B16-F10 = test: Cytotoxicity against mouse B16F10 cells assessed as cell viability at 10 uM incubated for 24 hrs by MTT assay; type: cell-based; conditions: b16-f10, 24 h
Klebsiella pneumoniae = test: Antibacterial activity against Klebsiella pneumoniae BAA-1705 assessed as growth inhibition incubated for 18 to 24 hrs by broth microdilution based antibiotic susceptibility testing method; type: functional; conditions: ATCC BAA-1705
Pseudomonas aeruginosa = test: Antibacterial activity against Pseudomonas aeruginosa ATCC 27853 assessed as growth inhibition incubated for 18 to 24 hrs by broth microdilution based antibiotic susceptibility testing method; type: functional
Staphylococcus aureus = test: Antibacterial activity against Staphylococcus aureus ATCC 29213 assessed as growth inhibition incubated for 18 to 24 hrs by broth microdilution based antibiotic susceptibility testing method; type: functional
[4] = Selectivity index, ratio of IC50 for CHOK1 cells to MIC for Mycobacterium tuberculosis H37Rv; type: toxicity; conditions: hamster, CHO-K1 cells; read-out: Selectivity Index
[5] = tested on: Mycolicibacterium fortuitum; test: Antimycobacterial activity against Mycobacterium fortuitum assessed as growth inhibition; type: functional, organism-based
Mycobacteroides chelonae = test: Antimycobacterial activity against Mycobacterium chelonae assessed as growth inhibition; type: functional, organism-based
[6] = tested on: Mycobacteroides abscessus; test: Antimycobacterial activity against Mycobacterium abscessus assessed as growth inhibition; type: functional, organism-based
[7] = tested on: Mycobacterium tuberculosis; test: Antitubercular activity against Mycobacterium tuberculosis H37Rv ATCC 27294 assessed as bacterial growth inhibition incubated for 5 days by standard microdilution method; type: functional; conditions: H37Rv ATCC 27294, 120 h
CHO-K1 [8] = test: Cytotoxicity against CHOK1 cells assessed as cell viability at 8 ug/ml incubated for 24 hrs by MTT assay; type: cell-based, Cricetulus griseus; conditions: chinese hamster, cho-k1, 24 h
Acinetobacter baumannii = test: Antibacterial activity against Acinetobacter baumannii BAA-1605 assessed as growth inhibition incubated for 18 to 24 hrs by broth microdilution based antibiotic susceptibility testing method; type: functional

Row | Structure (SMILES) | MIC [1] [µg/mL] | inhibition at 10 µM [2] [%] | further results
1 | CCOC(=O)c1nc(C(C)C)sc1-c1cccc(C#N)c1 | 15 to 17 (≈ 49.9 to 56.6 µM) |  | 
2 | CC(C)c1nc(C(=O)NCc2ccccc2)c(-c2ccc(C#N)cc2)s1 | > 34 |  | 
3 | CCOC(=O)c1nc(C(C)C)sc1-c1ccccc1C#N | 15 (≈ 49.9 µM) |  | 
4 | COc1ccc(CCNC(=O)c2nc(C(C)C)sc2-c2ccc3c(c2)OCO3)cc1OC | 5.6 (≈ 12.3 µM) | 84.9 | 
5 | CCOC(=O)c1nc(C(C)C)sc1-c1ccc(C#N)cc1 | 1.8 (≈ 5.99 µM) | 82.7 | MIC (Escherichia coli): > 50 µM; IC50 (CHO-K1 [3]): 40.5 µg/mL (≈ 135 µM); Activity (MCF7): Non-Toxic; Activity (B16-F10): Non-Toxic; MIC (Klebsiella pneumoniae): > 50 µM; MIC (Pseudomonas aeruginosa): > 50 µM; MIC (Staphylococcus aureus): > 50 µM; selectivity ratio [4]: 22.4; inhibition [5]: inactive; inhibition (Mycobacteroides chelonae): inactive; inhibition [6]: inactive
6 | N#Cc1ccc(-c2sc(C3CCCCC3)nc2C(=O)NCc2ccc3c(c2)OCO3)cc1 | > 34 |  | 
7 | CC(C)c1nc(C(=O)NCc2cccnc2)c(-c2ccc3c(c2)OCO3)s1 | 9.5 (≈ 24.9 µM) | 87.1 | 
8 | C[C@@H](NC(=O)c1nc(C2CCCCC2)sc1-c1ccc(C#N)cc1)c1ccccc1 | 10.3 (≈ 24.8 µM) | 57.8 | 
9 | CC(C)c1nc(C(=O)N[C@H](C)c2ccccc2)c(-c2ccc3c(c2)OCO3)s1 | 4.9 (≈ 12.4 µM) | 90.9 | 
10 | CCOC(=O)c1nc(C(C)C)sc1-c1ccc2c(c1)OCO2 | 7.9 (≈ 24.7 µM) | 90.1 | 
11 | Cc1nc(C(=O)N2CCOCC2)c(-c2ccc(C#N)cc2)s1 | > 34 |  | 
12 | Cc1nc(C(=O)N[C@H](C)c2ccccc2)c(-c2ccc(C#N)cc2)s1 | > 34 | 74 | 
13 | CCOC(=O)c1nc(C2CCCCC2)sc1-c1ccc2c(c1)OCO2 | 8.9 (≈ 24.8 µM) | 92 | 
14 | Cc1nc(C(=O)NCc2cccnc2)c(-c2ccc(C#N)cc2)s1 | > 34 |  | 
15 | CC(C)c1nc(C(=O)NCc2cc(Cl)cc(Cl)c2)c(-c2ccc(C#N)cc2)s1 | > 34 |  | 
16 | CCOC(=O)c1nc(C2CCCCC2)sc1-c1ccc2c(c1)NC(=O)CO2 | 19.3 (≈ 49.9 µM) |  | 
17 | CC(C)c1nc(C(=O)N[C@H](C)c2cccc3ccccc23)c(-c2ccc(C#N)cc2)s1 | > 34 |  | 
18 | CC(C)c1nc(C(=O)NC(C)c2ccc(Br)cc2)c(-c2ccc(C#N)cc2)s1 (stereo unspecified) | > 34 |  | 
19 | CCOC(=O)c1nc(C(C)C)sc1-c1cnc2ccccc2c1 | 4 (≈ 12.3 µM) | 80.5 | MIC (Escherichia coli): > 50 µM; IC50 (CHO-K1 [3]): > 50 µg/mL; Activity (MCF7): Non-Toxic; Activity (B16-F10): Non-Toxic; MIC (Klebsiella pneumoniae): > 50 µM; MIC (Pseudomonas aeruginosa): > 50 µM; MIC (Staphylococcus aureus): > 50 µM; selectivity ratio [4]: > 12.5; inhibition [5]: inactive; inhibition (Mycobacteroides chelonae): inactive; inhibition [6]: inactive
20 | COc1ccc(CCNC(=O)c2nc(C(C)C)sc2-c2ccc(C#N)cc2)cc1OC | 5.4 (≈ 12.4 µM) | 89.4 | 
21 | CC(C)c1nc(C(=O)NCc2ccc3c(c2)OCO3)c(-c2ccc(C#N)cc2)s1 | > 34 |  | 
22 | CC(C)c1nc(C(=O)NCc2ccc(F)cc2)c(-c2ccc(C#N)cc2)s1 | > 34 |  | 
23 | Cc1ccc(C(C)NC(=O)c2nc(C(C)C)sc2-c2ccc(C#N)cc2)cc1 (stereo unspecified) | > 34 |  | 
24 | CCOC(=O)c1nc(C2CCCCC2)sc1-c1cnc2ccccc2c1 | 4.5 (≈ 12.3 µM) | 86.5 | 
25 | CCOC(=O)c1nc(C(C)C)sc1-c1cccc2cnccc12 | 16.3 (≈ 49.9 µM) |  | 
26 | CCOC(=O)c1nc(C2CCCCC2)sc1-c1ccc2nccnc2c1 | 4.5 (≈ 12.2 µM) | 93.3 | 
27 | CC(C)c1nc(C(=O)NCc2ccc(Cl)c(F)c2)c(-c2ccc(C#N)cc2)s1 | > 34 |  | 

Row | Structure (SMILES) | MIC [1] [µg/mL] | inhibition at 10 µM [2] [%] | further results
28 | CO[C@@]12[C@H](COC(N)=O)C3=C(C(=O)C(C)=C(N)C3=O)N1C[C@@H]1N[C@@H]12 [MITOMYCIN] |  |  | IC50 (CHO-K1 [3]): 13.1 µg/mL (≈ 39.2 µM)
29 | CC(C)c1nc(C(=O)N[C@@H](C)c2ccccc2)c(-c2ccc3c(c2)OCO3)s1 | 4.9 (≈ 12.4 µM) | 90.8 | 
30 | CC(C)c1nc(C(=O)N2CCOCC2)c(-c2ccc(C#N)cc2)s1 | > 34 |  | 
31 | COc1ncnc(Cn2cc(C(=O)NCCO)c3ncc(C)cc32)c1C [TBA-7371] |  |  | MIC [7]: 0.78 to 3.12 µM (≈ 0.277 to 1.11 µg/mL)
32 | CC(C)c1nc(C(=O)NCc2ccc3c(c2)OCO3)c(-c2ccc3c(c2)OCO3)s1 | 10.6 (≈ 25 µM) | 82.2 | 
33 | CCOC(=O)c1nc(C)sc1-c1ccc2c(c1)OCO2 | 13.6 (≈ 46.7 µM) |  | 
34 | Cc1nc(C(=O)NCc2ccc3c(c2)OCO3)c(-c2ccc(C#N)cc2)s1 | > 34 |  | 
35 | C[C@H](NC(=O)c1nc(C2CCCCC2)sc1-c1ccc(C#N)cc1)c1ccccc1 | 20.7 (≈ 49.8 µM) |  | 
36 | CCOC(=O)c1nc(C2CCCCC2)sc1-c1cccc(C#N)c1 | 4.2 (≈ 12.3 µM) | 90.3 | MIC (Escherichia coli): > 50 µM; IC50 (CHO-K1 [3]): > 50 µg/mL; Activity (MCF7): Non-Toxic; Activity (B16-F10): Non-Toxic; MIC (Klebsiella pneumoniae): > 50 µM; MIC (Pseudomonas aeruginosa): > 50 µM; MIC (Staphylococcus aureus): 50 µM (≈ 17 µg/mL); selectivity ratio [4]: > 11.9; inhibition [5]: inactive; inhibition (Mycobacteroides chelonae): inactive; inhibition [6]: inactive
37 | CC(C)c1nc(C(=O)NCc2ccc(Cl)cc2)c(-c2ccc(C#N)cc2)s1 | > 34 |  | 
38 | CCOC(=O)c1nc(C(C)C)sc1-c1ccc2nccnc2c1 | 8.1 (≈ 24.7 µM) | 19.5 | 
39 | CO[C@H]1/C=C/O[C@@]2(C)Oc3c(C)c(O)c4c(O)c(c(/C=N/N5CCN(C)CC5)c(O)c4c3C2=O)NC(=O)/C(C)=C\C=C\[C@H](C)[C@H](O)[C@@H](C)[C@@H](O)[C@@H](C)[C@H](OC(C)=O)[C@@H]1C [RIFAMPIN] | 0.2 (≈ 0.243 µM) |  | 
40 | COc1ccc(CCNC(=O)c2nc(C)sc2-c2ccc(C#N)cc2)cc1OC | > 34 | 67.3 | 
41 | CCOC(=O)c1nc(C2CCCCC2)sc1-c1ccc(C#N)cc1 | 2.1 (≈ 6.17 µM) | 90.5 | MIC (Escherichia coli): > 50 µM; Activity (CHO-K1 [8]): Non-Toxic; IC50 (CHO-K1 [3]): 75.2 µg/mL (≈ 221 µM); Activity (MCF7): Non-Toxic; Activity (B16-F10): Non-Toxic; MIC (Klebsiella pneumoniae): > 50 µM; MIC (Pseudomonas aeruginosa): > 50 µM; MIC (Staphylococcus aureus): 50 µM (≈ 17 µg/mL); selectivity ratio [4]: 35.8; inhibition [5]: inactive; inhibition (Mycobacteroides chelonae): inactive; inhibition [6]: inactive
42 | CCOC(=O)c1nc(C2CCCCC2)sc1-c1cccc2cnccc12 | 4.5 (≈ 12.3 µM) | 96 | 
43 | Cc1nc(C(=O)N[C@@H](C)c2ccccc2)c(-c2ccc(C#N)cc2)s1 | > 34 | 73.5 | 
44 | CCOC(=O)c1nc(C(C)C)sc1-c1ccc2c(c1)NC(=O)CO2 | > 34 |  | 
45 | CC(C)c1nc(C(=O)N[C@H](C)c2ccccc2)c(-c2ccc(C#N)cc2)s1 | 9.3 (≈ 24.8 µM) | 86.7 | 
46 | COc1ccc(CCNC(=O)c2nc(C3CCCCC3)sc2-c2ccc(C#N)cc2)cc1OC | 5.9 (≈ 12.4 µM) | 71.6 | 
47 | CCOC(=O)c1nc(C)sc1-c1ccc(C#N)cc1 | 14.5 (≈ 53.2 µM) | 20.2 | 
48 | CC(C)c1nc(C(=O)NCc2cccnc2)c(-c2ccc(C#N)cc2)s1 | > 34 |  | 
49 | N#Cc1ccc(-c2sc(C3CCCCC3)nc2C(=O)N2CCOCC2)cc1 | > 34 |  | 
50 | CC(C)c1nc(C(=O)N2CCOCC2)c(-c2ccc3c(c2)OCO3)s1 | > 34 |  | 
51 | CCOC(=O)c1nc(C2CCCCC2)sc1-c1ccccc1C#N | 4.2 (≈ 12.3 µM) | 91.7 | MIC (Escherichia coli): > 50 µM; IC50 (CHO-K1 [3]): > 50 µg/mL; Activity (MCF7): Non-Toxic; Activity (B16-F10): Non-Toxic; MIC (Klebsiella pneumoniae): > 50 µM; MIC (Pseudomonas aeruginosa): > 50 µM; MIC (Staphylococcus aureus): 50 µM (≈ 17 µg/mL); selectivity ratio [4]: > 11.9; inhibition [5]: inactive; inhibition (Mycobacteroides chelonae): inactive; inhibition [6]: inactive
52 | C[C@H]1COc2c(N3CCN(C)CC3)c(F)cc3c(=O)c(C(=O)O)cn1c23 [LEVOFLOXACIN] |  |  | MIC (Escherichia coli): < 30 µM; MIC (Acinetobacter baumannii): 8 µM (≈ 2.89 µg/mL)
53 | N#Cc1ccc(-c2sc(C3CCCCC3)nc2C(=O)NCc2cccnc2)cc1 | > 34 |  | 
54 | CC(C)c1nc(C(=O)N[C@@H](C)c2ccccc2)c(-c2ccc(C#N)cc2)s1 | 18.7 (≈ 49.8 µM) | 73.2 | 
